Assay results reported in publication PMC4872591, “An evaluation of Minor Groove Binders as anti-Trypanosoma brucei brucei therapeutics” (European Journal of Medicinal Chemistry, 2016).
pIC50: −log10 of the molar value. Where two headings read alike, the source gives them in different places. Marks after values point to notes of the source that are not given here.

Legend:
[1] = system: Bloodstream form T. b. brucei (Lister 427); assay: Trypanosoma brucei brucei Alamar Blue assay; type: cell-based; conditions: Trypanosoma brucei; for IC50: values given in nM, read-out: IC50 against T. b. brucei
Procedure: IC50 values against trypanosomes were determined by Alamar Blue assay. […] After this time, 20 μL of resazurin dye (Sigma–Aldrich) solution at 0.49 mM was added. […] Output was plotted using the IC50 determination algorithm of Prism 5.0 software (GraphPad). Three independent experiments were carried out in duplicate for each compound.

HEK 293 cells = assay: HEK 293 cytotoxicity assay (AlamarBlue viability); type: cell-based, human; conditions: for SI (selectivity index): HEK 293 IC50 taken as 20 μM (10 μM estimated for compound 21) versus T. b. brucei IC50
Procedure: Compounds were tested in an AlamarBlue viability assay using fluorescent intensity as the output. Briefly, Human Embryonic Kidney cells (HEK 293) were cultured in DMEM (Dulbeccos Modified Eagle Medium) plus 10% Foetal Bovine Serum (FBS) in a humidified environment at 37 °C and 5% CO2. Cells were harvested at 80% confluence and plated into 384-well tissue culture treated black walled clear base plates at 2000 cells per well in a volume of 45 μl and incubated overnight to equilibrate. Five μl of compounds in serial dilution format, including Puromycin as a positive control and 0.4% DMSO as the negative control, were transferred into the plates containing the equilibrated HEK293 cells. The plates were incubated for a further 72 h before “flicking” the compound containing media out and replacing with 40 μL of 10% AlamarBlue® in DMEM without FBS. The assay plates were returned to the incubator for 6 h then the total fluorescent intensity determined at 535 nm excitation and 585 nm emission using the Perkin Elmer ENVISION 2101 Multilabel Reader. Fluorescent intensity values were normalized as percent inhibition in relation to the positive and negative controls of 5 μM Puromycin and 0.4% DMSO, respectively. The compounds were tested in two separate experiments each in duplicate point.

T. b. brucei = assay: Fluorescence microscopy, intracellular localisation in T. b. brucei; type: cell-based, Trypanosoma brucei brucei; conditions: 50 μM, 2 h, FITC and DsRed filters
Procedure: Fig. 6 Intracellular localisation of fluorescent MGB in T. b. brucei. Trypanosomes were treated for 2 h with 50 μM of MGB and viewed at 100 × magnification. N = nucleus; K = kinetoplast; arrow = other organelles. Bar = 10 μm.
T. b. brucei parasites (1 × 10^7 cell/mL) were treated with 50 μM of compound 32 for 2 h at 37 °C in a humidified, 5% CO2 atmosphere. After washing in PBS, an aliquot of cells was mixed with an equal volume of 2% w/v low melting point agarose (Sigma–Aldrich) and spread onto a slide by addition of a coverslip. Slides were viewed using a Zeiss Axioplan 2 Imaging epifluorescence microscope, equipped with a digital CCD camera (Hammatsu Photonics) and a Plan[…] 100 × oil-immersion NA 1.4 objective (Carl Zeiss). FITC (excitation 450–490 nm, beamsplitter 510 nm, emission 515–565 nm) and DsRed (excitation 545/25 nm, beamsplitter 570 nm, emission 605/70 nm) filter sets were used, and images acquired using Volocity imaging software (Improvision).

[2] = system: kinetoplast of trypanosome; parameters: method as in PMID 16723581; conditions: cited from earlier work
[3] = Table 1, Alamar Blue, 48 h + 24 h, all standard deviations less than 2%, read-out: IC50 against Trypanosoma brucei brucei
[4] = Table 2, read-out: Trypanosoma brucei brucei IC50

Cn1cc(NC(=O)c2cc(NC(=O)c3cc(NC(=O)c4cc5ccccc5cn4)cn3C)cn2C)cc1C(=O)NCCCN1CCOCC1 [Compound 8, N-[1-Methyl-5-({[1-methyl-5-({[1-methyl-5-({[3-(4-morpholinyl)propyl]amino}carbonyl)-1H-pyrrol-3-yl]amino}carbonyl)-1H-pyrrol-3-yl]amino}carbonyl)-1H-pyrrol-3-yl]-3-isoquinolinecarboxamide]
pIC50 [1, 3]: 8.17
pIC50 [1, 4]: 8.17
IC50 [1]: < 40 nM
% HEK 293 Inhibition at 20 μM (HEK 293 cells; 20 μM, 72 h, HEK 293): N/A (N/A is an IC50 value > 20 μM)
SI (selectivity index) (HEK 293 cells): >2941

CC(C)CCc1sc(NC(=O)c2cc(NC(=O)c3ccc(/C=C/c4ccc5ccccc5c4)cc3)cn2C)nc1C(=O)NCCN1CCOCC1 [Compound 20, 5-isopentyl-2-({[1-methyl-4-({4-[(E)-2-(2-naphthyl)ethenyl]benzoyl}amino)-1H-pyrrol-2-yl]carbonyl}amino)-N-[2-(4-morpholinyl)ethyl]-1,3-thiazole-4-carboxamide]
pIC50 [1, 3]: 7.40
pIC50 [1, 4]: 7.40
IC50 [1]: < 40 nM
% HEK 293 Inhibition at 20 μM (HEK 293 cells; 20 μM, 72 h, HEK 293): N/A (N/A is an IC50 value > 20 μM)
SI (selectivity index) (HEK 293 cells): >500

CC(C)CCc1sc(NC(=O)c2cc(NC(=O)c3cc(/C=C/c4ccc([N+](=O)[O-])cc4)cn3C)cn2C)nc1C(=O)NCCN1CCOCC1 [Compound 21, 5-isopentyl-2-[({1-methyl-4-[({1-methyl-4-[(E)-2-(4-nitrophenyl)ethenyl]-1H-pyrrol-2-yl}carbonyl)amino]-1H-pyrrol-2-yl}carbonyl)amino]-N-[2-(4-morpholinyl)ethyl]-1,3-thiazole-4-carboxamide]
pIC50 [1, 3]: 8.27
pIC50 [1, 4]: 8.27
IC50 [1]: < 40 nM
SI (selectivity index) (HEK 293 cells): >1851*
inhibition at 20 µM (HEK 293 cells; Homo sapiens, HEK293, 20 μM, 72 h, HEK 293): 54%
pIC50 (HEK 293 cells; Homo sapiens, HEK293, read-out: estimated IC50 against HEK 293 cells): ~5.00

Cn1cc(NC(=O)c2cc(NC(=O)c3ccc(/C=C/c4ccc5nsnc5c4)cc3)cn2C)cc1C(=O)NCCN1CCOCC1 [Compound 28, 4-({4-[(E)-2-(2,1,3-benzothiadiazol-5-yl)ethenyl]benzoyl}amino)-1-methyl-N-[1-methyl-5-({[2-(4-morpholinyl)ethyl]amino}carbonyl)-1H-pyrrol-3-yl]-1H-pyrrole-2-carboxamide]
pIC50 [1, 3]: 8.14
pIC50 [1, 4]: 8.14
IC50 [1]: < 40 nM
% HEK 293 Inhibition at 20 μM (HEK 293 cells; 20 μM, 72 h, HEK 293): N/A (N/A is an IC50 value > 20 μM)
SI (selectivity index) (HEK 293 cells): >2739

Cn1cc(NC(=O)c2cc(NC(=O)c3ccc(/C=C/c4ccc5nonc5c4)cc3)cn2C)cc1C(=O)NCCN1CCOCC1 [Compound 29, 4-({4-[(E)-2-(2,1,3-benzoxadiazol-5-yl)ethenyl]benzoyl}amino)-1-methyl-N-[1-methyl-5-({[2-(4-morpholinyl)ethyl]amino}carbonyl)-1H-pyrrol-3-yl]-1H-pyrrole-2-carboxamide]
pIC50 [1, 3]: 7.72
pIC50 [1, 4]: 7.72
IC50 [1]: < 40 nM
% HEK 293 Inhibition at 20 μM (HEK 293 cells; 20 μM, 72 h, HEK 293): N/A (N/A is an IC50 value > 20 μM)
SI (selectivity index) (HEK 293 cells): >1052

CSc1ccc(/C=C/c2ccc3cc(C(=O)Nc4cc(C(=O)Nc5cc(C(=O)NCCN6CCOCC6)n(C)c5)n(C)c4)ccc3n2)cc1 [Compound 31, N-[1-methyl-5-({[1-methyl-5-({[2-(4-morpholinyl)ethyl]amino}carbonyl)-1H-pyrrol-3-yl]amino}carbonyl)-1H-pyrrol-3-yl]-2-{(E)-2-[4-(methylsulfanyl)phenyl]ethenyl}-6-quinolinecarboxamide]
pIC50 [1, 3]: 5.30

CN(C)c1ccc(/C=C/c2ccc(C(=O)Nc3cc(C(=O)Nc4cc(C(=O)NCCN5CCOCC5)n(C)c4)n(C)c3)cn2)cc1 [Compound 32, 6-{(E)-2-[4-(Dimethylamino)phenyl]ethenyl}-N-[1-methyl-5-({[1-methyl-5-({[2-(4-morpholinyl)ethyl]amino}carbonyl)-1H-pyrrol-3-yl]amino}carbonyl)-1H-pyrrol-3-yl]nicotinamide]
Intracellular localisation in the trypanosome (T. b. brucei): localisation to the nucleic acid rich regions of the nucleus and kinetoplast
pIC50 [1, 3]: 6.77

N=C(N)c1ccc(/N=N/Nc2ccc(C(=N)N)cc2)cc1 [Diminazene, diminazene, reference compound]
IC50 [1]: 5 nM

N=C(N)c1ccc(-c2ccc(-c3ccc(C(=N)N)cc3)o2)cc1 [Furamidine, furamidine]
exposure time to destruction of the kinetoplast [2]: ≤ 24 h

COc1ccc(C[C@H](N)C(=O)N[C@H]2[C@@H](O)[C@H](n3cnc4c(N(C)C)ncnc43)O[C@@H]2CO)cc1 [Puromycin, reference compound]
pIC50 (HEK 293 cells; Homo sapiens, HEK293, positive control, two separate independent experiments, read-out: IC50 against HEK 293 cells): 6.46

N=C(N)c1ccc(OCCCCCOc2ccc(C(=N)N)cc2)cc1 [pentamidine]
exposure time to destruction of the kinetoplast [2]: ≤ 24 h
